According to patent publication US12168671B2, “Phosphohistidine mimetics and antibodies to same” (The Trustees of Princeton University, priority 2013, dated 2024):

Experiment: second pKa from 31P shift
Format: physicochemical
Text: This means that both the pPye and pHis have the same charge state at physiological pH. Since the pKa2 of pHis is […], both of the phosphate group oxygen atoms in pHis will be depronated. For pPye, the doubly deprotonated state will be favored at physiological pH (pH 7.4), well mimicking pHis.

NCCn1cc(P(=O)(O)O)cn1 [pPye] gave a pKa of ~6.7.
